Patent US5821230A, “GnRH antagonist decapeptides” (Ferring BV, priority 1997, dated 1998)
*1 amine or outer side, *2 acyl side, *3 side chain or, on linkers, in order; H or OH if unused. Where a SMILES comes first, the peptide text is derived from it. Side-chain parts run from the residue outwards. [ ]: non-standard residue; d: D form. dPhe(4-NH2) = Nc1ccc(C[C@@H](N)C(=O)O)cc1; dPhe(4-Cl) = N[C@H](Cc1ccc(Cl)cc1)C(=O)O; Phe(4-NH2) = Nc1ccc(C[C@H](N)C(=O)O)cc1; d2Nal = N[C@H](Cc1ccc2ccccc2c1)C(=O)O; Lys(iPr) = CC(C)NCCCC[C@H](N)C(=O)O; dDap = NC[C@@H](N)C(=O)O; CO = O=C([*:1])[*:2]

Tests used:
[1] = examination of injected rats for tolerance and gelling at the point of injection; format: in vivo; details: 50 μg per rat sc
[2] = hydrophilicity by RP-HPLC retention time, TEAP pH 7.0 gradient; format: physicochemical; details: 40% to 70% Buffer B over 30 minutes
Experimental: Hydrophilicity is tested by measuring retention time using RP-HPLC with a gradient of 40% Buffer B to 70% Buffer B over 30 minutes, with Buffer A being TEAP pH 7.0 and Buffer B being 70% CH3 CN and 30% Buffer A at pH 7.0.

LH secretion = assay: in vivo suppression of circulating LH levels in castrated male Sprague-Dawley rats treated subcutaneously; design: species or system rat; details: for in vivo suppression of LH secretion compared with a reference peptide: dosage not printed at the place; for suppression of LH compared with a reference peptide: standard in vivo rat test as in Example 1
Experimental: The peptide is hereinafter referred to as Peptide No. 1 and is assayed in vivo to determine its effectiveness to suppress secretion of LH in rats. Measurement of circulating LH levels in castrated male Sprague-Dawley rats treated subcutaneously with the peptide is carried out as reported in C. Rivier et al. Biol. Reproduc., 1983. 29, 374-378. The peptides are first dissolved at a concentration of 1.0 or 10 mg/ml in bacteriostatic water and then further diluted in 0.04M phosphate buffer containing 0.1% BSA. Subsequent dilutions are made in phosphate buffer. The peptides are injected sc, and blood samples (300 μl) are collected under metotane anesthesia. Sera (50 […]) are tested for LH levels in duplicate using reagents provided by the National Pituitary and Hormone Distribution Program of the NIDDK. […] However, 96 hours following injection, the LH levels are only about 75% of those of the Acyline-injected rats.

[3] = dosage of 50 micrograms per rat sc

| Compound | hydrophilicity compared with a reference peptide [2] | gelling at the point of injection [1] | tolerance of the peptide in injected rats [1] | in vivo suppression of LH secretion compared with a reference peptide (LH secretion) | duration of action, as classed in words (LH secretion; [3]) | suppression of LH compared with a reference peptide (LH secretion; [3]) |
| --- | --- | --- | --- | --- | --- | --- |
| CNC(=O)NC[C@@H](NC(=O)[C@@H](Cc1ccc(Cl)cc1)NC(=O)[C@@H](Cc1ccc2ccccc2c1)NC(C)=O)C(=O)N[C@@H](CO)C(=O)N[C@@H](Cc1ccc(NC(C)=O)cc1)C(=O)N[C@H](Cc1ccc(NC(C)=O)cc1)C(=O)N[C@@H](CC(C)C)C(=O)N[C@@H](CCCCNC(C)C)C(=O)N1CCC[C@H]1C(=O)N[C@H](C)C(N)=O [Peptide No. 1, Ac-D-2Nal-(4Cl)D-Phe-D-Dpr(methylcarbamoyl)-Ser-4Aph (acetyl)-D-4Aph(acetyl)-Leu-Lys(isopropyl)-Pro-D-Ala-NH2] (Ac-[d2Nal][dPhe(4-Cl)][dDap]([CO-NHMe])S[Phe(4-NH2)](Ac)[dPhe(4-NH2)](Ac)L[Lys(iPr)]P[dA]-NH2) |  | no significant gelling at the point of injection being detectable | very well tolerated |  |  |  |
| Ac-β-D-2Nal-D-4Cpa-D-Dpr(methylcarbamoyl)-Ser-4Aph(Hor)-D-Aph(Hor)-Leu-Lys(isopropyl)-Pro-D-Ala-NH2 [Example 5E] | more hydrophilic than Acyline |  |  |  | long-acting | substantially as active as Acyline in suppressing LH level at 1, 2 and 3 days |

More lines, main results first:

| hydrophilicity compared with a reference peptide [2] | Compound | gelling at the point of injection [1] | tolerance of the peptide in injected rats [1] | in vivo suppression of LH secretion compared with a reference peptide (LH secretion) | duration of action, as classed in words (LH secretion; [3]) | suppression of LH compared with a reference peptide (LH secretion; [3]) |
| --- | --- | --- | --- | --- | --- | --- |
| more hydrophilic than Antide | Ac-D-2Nal-D-4Cpa-D-Dpr(methylcarbamoyl)-Ser-4Aph(Gab)(atz)-D-4Aph(Gab)(atz)-Leu-ILys-Pro-D-Ala-NH2 [Peptide No. 5A] |  |  | longer duration of in vivo suppression of LH secretion than Acyline |  |  |
| more hydrophilic than Antide | Ac-D-2Nal-D-4Cpa-D-Dpr(methylcarbamoyl)-Ser-4Aph(β-Ala)(atz)-D-4Aph(β-Ala)(atz)-Leu-ILys-Pro-D-Ala-NH2 [Peptide No. 5B] |  |  | longer duration of in vivo suppression of LH secretion than Antide |  |  |
| more hydrophilic than Acyline | Ac-β-D-2Nal-D-4Cpa-Gln-Ser-4Aph(hydroorotyl)-D-4Amf(methylcarbamoyl)- Leu-Lys(isopropyl)-Pro-D-Ala-NH2 [Example 8F] |  |  |  |  | substantially as effective as Acyline for 3 days |
